Data taken from patent US11426404B2, “Dosing of KRAS inhibitor for treatment of cancers” (AMGEN INC., priority 2019, dated 2022).
“And” between values parts separate entries of the source, which are not always exact repeats. Equal entries are not always repeated.

Columns and labels:
[1] = system: KRAS p.G12C tumors; conditions: preclinical KRAS p.G12C models; cited from earlier work
[2] = clinical; conditions: human, in vivo, po, 960 mg
[3] = system: patients with CRC; assay: Phase 1 study, updated results (cutoff Jan. 8, 2020): adverse events in patients with CRC, N = 42; format: in vivo;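 also: values are patient incidence of adverse events, i.e. counts of patients experiencing each event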
From the text: (§1) A subject undergoing a therapy is monitored for adverse events (AE) during the course of the therapy. A treatment related AE is an AE that is related to the treatment drug. A treatment emergent AE is one that a subject develops undergoing the treatment that was not present prior to start of therapy. In some cases, the treatment emergent AE is not or suspected not to be related to the treatment itself AEs are characterized as one of five grades—grade 1 is a mild AE; grade 2 is a moderate AE; grade 3 is a severe AE; grade 4 is a life-threatening or disabling AE; and grade 5 is death related to AE.
(§2) The grading of AEs is based on the guidelines provided in the CTCAE version 5.0. AEs for DLT assessment: Hematological toxicity: Febrile neutropenia; Neutropenic infection; Grade 4 neutropenia; Grade ≥3 thrombocytopenia for >7 days; Grade 3 thrombocytopenia with grade ≥2 bleeding; Grade 4 thrombocytopenia; Grade 4 Anemia
(§3) Non-hematological toxicity Grade ≥4, vomiting or diarrhea; Grade 3 diarrhea or grade 3 vomiting lasting more than 3 days despite optimal medical support; Grade ≥3 nausea for 3 days or more despite optimal medical support; Any other grade ≥3 AE
All enrolled patients had received prior lines of systemic anticancer therapy.

[4] = system: KRAS p.G12C tumors; assay: Preclinical KRAS p.G12C tumor models; format: in vivo
[5] = system: KRAS p.G12C tumors; assay: Treatment of immune-competent mice; format: in vivo
[6] = system: patients with advanced solid tumors other than NSCLC and CRC
From the text: as §1, §2, §3

C=CC(=O)N1CCN(c2ncnc3c(F)c(-c4c(O)cccc4F)c(Cl)cc23)CC1 [ARS-1620]
in vivo efficacy [1]: demonstrates in vivo efficacy

C=CC(=O)N1CCN(c2nc(=O)n(-c3c(C)ccnc3C(C)C)c3nc(-c4c(O)cccc4F)c(F)cc23)[C@@H](C)C1 [Compound A, 4-((S)-4-acryloyl-2-methylpiperazin-1-yl)-6-fluoro-7-(2-fluoro-6-hydroxyphenyl)-1-(2-isopropyl-4-methylpyridin-3-yl)pyrido[2,3-d]pyrimidin-2(1H)-one]
AUC [2]: 65.3 µg·h/mL
AUC(0-t) [2]: 140 µg·h/mL
tolerability ([3]; CRC patients): well tolerated with mild treatment-related toxicities
anemia, grade 3 treatment-related AE ([3]; CRC, 42 patients): 1 patient
diarrhea, grade 3 treatment-related AE ([3]; CRC, 42 patients): 1 patient
AEs leading to treatment discountinuation, Treatment-Emergent AEs (TEAEs) ([3]; CRC, N = 42): 2 (4.8) n (%)
AEs leading to treatment discountinuation, Treatment-related TEAEs ([3]; CRC, N = 42): 0 (0.0) n (%)
Anemia (treatment-related TEAE of any grade) ([3]; CRC, N = 42): 2 (4.8) n (%)
Any grade, Treatment-Emergent AEs (TEAEs) ([3]; CRC, N = 42): 38 (90.5) n (%)
Any grade, Treatment-related TEAEs ([3]; CRC, N = 42): 20 n (%) and 20 (47.6) n (%)
Blood creatine phosphokinase increase (treatment-related TEAE of any grade) ([3]; CRC, N = 42): 2 (4.8) n (%)
Diarrhea (treatment-related TEAE of any grade) ([3]; CRC, N = 42): 8 (19.0) n (%)
Dose-limiting toxicities, Treatment-related TEAEs ([3]; CRC, N = 42): 0 (0.0) n (%)
Fatal AEs, Treatment-Emergent AEs (TEAEs) ([3]; CRC, N = 42): 3 (7.1) n (%)
Fatal AEs, Treatment-related TEAEs ([3]; CRC, N = 42): 0 (0.0) n (%)
Fatigue (treatment-related TEAE of any grade) ([3]; CRC, N = 42): 4 (9.5) n (%)
Grade ≥2, Treatment-Emergent AEs (TEAEs) ([3]; CRC, N = 42): 29 (69.0) n (%)
Grade ≥2, Treatment-related TEAEs ([3]; CRC, N = 42): 9 (21.4) n (%)
Grade ≥3, Treatment-Emergent AEs (TEAEs) ([3]; CRC, N = 42): 13 (31.0) n (%)
Grade ≥3, Treatment-related TEAEs ([3]; CRC, N = 42): 2 (4.8) n (%)
Grade ≥4, Treatment-Emergent AEs (TEAEs) ([3]; CRC, N = 42): 3 (7.1) n (%)
Grade ≥4, Treatment-related TEAEs ([3]; CRC, N = 42): 0 (0.0) n (%)
Nausea (treatment-related TEAE of any grade) ([3]; CRC, N = 42): 2 (4.8) n (%)
Serious AEs, Treatment-Emergent AEs (TEAEs) ([3]; CRC, N = 42): 10 (23.8) n (%)
Serious AEs, Treatment-related TEAEs ([3]; CRC, N = 42): 0 (0.0) n (%)
Vomiting (treatment-related TEAE of any grade) ([3]; CRC, N = 42): 2 (4.8) n (%)
effect in combination with chemotherapy and targeted agents [4]: significantly improved the anti-tumor efficacy of chemotherapy and targeted agents
outcome in combination with immune checkpoint inhibition [5]: durable cures
toxicities associated with Compound A ([6]; other solid tumors): mild and manageable
AEs leading to treatment discontinuation, All Treatment-Emergent AEs (TEAEs) ([6]; other solid tumors, N = 25): 3 (12.0) n (%)
Any grade, All Treatment-Emergent AEs (TEAEs) ([6]; other solid tumors, N = 25): 20 (80.0) n (%)
Any grade, All Treatment-Related TEAEs ([6]; other solid tumors, N = 25): 9 (36.0) n (%)
Dose-limiting toxicities, All Treatment-Related TEAEs ([6]; other solid tumors, N = 25): 0 (0.0) n (%)
Fatal AEs, All Treatment-Emergent AEs (TEAEs) ([6]; other solid tumors, N = 25): 4 (16.0) n (%)
Fatal AEs, All Treatment-Related TEAEs ([6]; other solid tumors, N = 25): 0 (0.0) n (%)
Grade ≥2, All Treatment-Emergent AEs (TEAEs) ([6]; other solid tumors, N = 25): 17 (68.0) n (%)
Grade ≥2, All Treatment-Related TEAEs ([6]; other solid tumors, N = 25): 4 (16.0) n (%)
Grade ≥3, All Treatment-Emergent AEs (TEAEs) ([6]; other solid tumors, N = 25): 15 (60.0) n (%)
Grade ≥3, All Treatment-Related TEAEs ([6]; other solid tumors, N = 25): 2 (8.0) n (%)
Grade ≥4, All Treatment-Emergent AEs (TEAEs) ([6]; other solid tumors, N = 25): 4 (16.0) n (%)
Grade ≥4, All Treatment-Related TEAEs ([6]; other solid tumors, N = 25): 0 (0.0) n (%)
Serious AEs, All Treatment-Emergent AEs (TEAEs) ([6]; other solid tumors, N = 25): 13 (52.0) n (%)
Serious AEs, All Treatment-Related TEAEs ([6]; other solid tumors, N = 25): 1 (4.0) n (%)
diarrhea, grade 3 treatment-related AE ([6]; out of 25 patients): 1 patients
diarrhea, treatment-related TEAE ([6]; out of 25 patients): 2 patients
fatigue, treatment-related TEAE ([6]; out of 25 patients): 2 patients
pneumonia, grade 3 treatment-related AE ([6]; out of 25 patients): 1 patients
